Experimental data: US20220409573A1, “Hippocampus Regeneration And Memory Recovery” (INNOBIOSCIENCE, LLC, priority 2021, published 2022)

Assays:
[1] = tested on: Wnt/β-catenin pathway in hippocampal neurons; experiment: Wnt/β-catenin pathway activation in cultured hippocampal neurons (western blot, immunofluorescence); assay type: cell-based, rat
Protocol: Primary culture of rat hippocampal neurons. Rat hippocampal cultures were prepared as previously described (Arrazola et al, 2009). On day 3 of culture, hippocampal cells were treated with […] 1-b-Darabinofuranosylcytosine (AraC) during 24 h to reduce the number of proliferating non-neuronal cells. […] PCR-ARRAY. RNA from hippocampal neurons was extracted using Trizol. Quantification and purity of RNA preparations were checked by absorbance using Nanodrop ND-2000. Only preparations with a 260/280 nm ratio≥1.8, a 260/230 nm ratio ≥1,7 and no sign of RNA degradations, verified by agarose gel electrophoresis with Gel Red TM were used. Genomic DNA was degraded. Using RT2First-Strand cDNA Synthesis kit (SuperArray), 1 μg total RNA was reverse transcribed and then real-time PCR was performed by adding cDNA directly to PCR Master Mix, containing SYBR Green and ROX. The mixtures were then aliquoted into a 96-well PCR array plates, which profiles the expression of 84 Wnt target genes from rat. The PCR was run on ABI StepOnePlus, with 1 cycle of 10 min at 95° C. followed by 40 cycles of 15 s at 95° C. and 1 min at 60° C. Cycle threshold (Ct) values were calculated for all the genes present on the array (Schmittgen & Livak, 2008).
Treatment of neuronal cultures. Primary hippocampal cultures of neurons 14 DIV were washed twice in neurobasal medium and maintained for 1 hour.
Nuclear and cytoplasmatic extraction. Following a time-course treatment, neurons were washed with cold PBS and harvested in 600 μL of cold homogenization buffer (10 mM HEPES pH 7,9; 1,5 mM MgCl2; 10 mM KCl; 1 mM DTT). The cells were disrupted by 20 passed, back and forth, through a syringe of 1 mL. Lysates were centrifuged for 6 minutes at 700 g at 4° C. and the supernatant was removed. The precipitate was washed in 100 μL of buffer (20 mM HEPES pH=7,9; 420 mM NaCl; 1,5 mM MgCl2; 0,2 mM EDTA; 1 mM DTT; 25% glicerol) and centrifuged again to generate nuclear fraction. Cytosolic fractions were generated from the supernatantat 100.000 g for 1 h at 4° C. Both buffers were supplemented with protease inhibitors and serine-phosphatase. Nuclear and cytosolic fractions were subsequently subjected to western blotting.
Immunoblotting. The samples were dissected on ice and immediately frozen in liquid nitrogen or processed has previously detailed (Inestrosa et al, 2011). Briefly, tissues were homogenized in RIPA buffer (10 mM Tris-Cl, pH 7.4, EDTA 5 mM, 1% NP-40, 1% sodium deoxycholate, and 1% SDS) supplemented with a protease inhibitor mixture (1 mM PMSF, 2 μg/mL aprotinin, 1 μg/mL pepstatin and 10 μg/mL benzamidine) and phosphatase inhibitors (25 mMNaF, 100 mM Na3VO4, 1 mM EDTA and 30 μM Na4P207) using a Potter homogenizator and then passed sequentially through different caliber syringes. Protein samples were centrifuged at 14000 rpm at 4° C. twice for 15 min. Protein concentration was determined using the BCA Protein Assay Kit (Pierce). Samples were resolved by […] 10% SDS-PAGE and transferred to a PVDF membrane. The reactions were followed by incubation with anti-mouse, anti-goat or anti-rabbit IgG peroxidase conjugated (Pierce, Rockford, Ill.) and developed using an ECL kit (Western Lightning Plus ECL, PerkinElmer).
Immunofluorescence. Hippocampal neurons were seeded onto poly-L-lysine-coated cover slips in 24-well culture plates at a density of 5×10^4 cellsper well, as described previously (Arrazola et al, 2009; Chacon et al, 2008). A mouse monoclonal anti-b-catenin was used. Cells were extensively washed with PBS and then incubated with Alexa 488-conjugated anti-mouse IgG for 1 h at room temperature. Cells were mounted in mounting medium and analyzed in a Carl-Zeiss Confocal Laser Microscope.

[2] = tested on: APPswe/PS-1 double transgenic mice; experiment: Classical Morris Water Maze test; assay type: in vivo; conditions: 12 month-old APPswe/PS-1 mice, 2.0 mg/kg IP three times per week, four weeks, vs Tg control
[3] = tested on: tau phosphorylation in the hippocampus of APPswe/PS-1 mice; experiment: Tau phosphorylation immunoblot (PHF-1, AT8) in treated APPswe/PS-1 mice; assay type: in vivo; conditions: hippocampus of 6 month-old APPswe/PS-1 mice, vs untreated
HEK293T cells = experiment: TOP/FOP flash luciferase reporter assay; assay type: cell-based
Protocol: Luciferase Assay. 150,000 HEK293T cells were seeded in triplicate per condition and kept for 24 hours at 37° C. with 5% CO2. The cultures were transfected with TOPflash or FOPflash (400 ng), which are firefly-luciferase reporter DNA constructs (Milipore), using LipofectAMINE 2000 (Invitrogen). To control for transfection pRL-TK (10 ng) was included in all transfections. […] Values were normalized by the renilla value from the same well. To statistically compare treatments ANOVA was used.

[4] = different concentrations for 6 h, 14 DIV neurons

C=C1CC[C@@H]2C(C)(CO)[C@H](O)CC[C@@]2(C)C1C/C=C1/C(=O)OC[C@H]1O (stereo in doubt) [ANDRO, 3-(2-(Decahydro-6-hydroxy-5-(hydroxymethyl)-5,8a-dimethyl-2-methylenenaphthyl)ethylidene)dihydro-4-hydroxyfuran-2(3H)-one]
β-catenin levels by immunofluorescence ([1]; 5 μM for 6 h, 14 DIV neurons): increased β-catenin levels
time of peak accumulation of cytoplasmic and nuclear β-catenin ([1]; ANDRO 10 μM time course): 9 h
time of maximum increase of the inhibited form of GSK-3β ([1]; ANDRO 10 μM time course, cytoplasmic fraction): 6 h
accumulation of β-catenin (western blot) [1, 4]: accumulation of β-catenin in a concentration-dependent manner
active form of GSK-3β (phosphor-Tyr-216) [1, 4]: decrease in the active form
inhibited form of GSK-3β (phospho-Ser-9) [1, 4]: increase in the inhibited form of the enzyme
escape latency [2]: significantly lower escape latency values
PHF-1- and AT8-positive tau levels [3]: reduction in PHF-1- and AT8-positive tau levels
TOPflash reporter activity (HEK293T cells; ANDRO 10 μM or 6-BIO 10 nM, 24 h): significant increase
increase of luciferase reporter over control (HEK293T cells; TOPflash, HEK293T): 4 fold
